Experimental data as given in publication PMC8824275, “Gastrointestinal Stability and Cytotoxicity of Bacteriocins From Gram-Positive and Gram-Negative Bacteria: A Comparative in vitro Study” (Frontiers in Microbiology, 2022).
Values after ≈ are worked out from the molar mass of the structure shown. Read-outs that look alike come from different tables or passages of the source. Bridge positions count the residues as written; N and C are the ends. Square brackets hold non-standard residues; d marks the D form. Ends that are not written are not given here. Peptide text beside a SMILES is read from it. Abu = CC[C@H](N)C(=O)O; Dhb = C/C=C(\N)C(=O)O; Dha = C=C(N)C(=O)O

Key:
S. aureus ATCC 6538 = assay type: cell-based, Staphylococcus aureus; settings: for Total activity: broth microdilution
From the text: (§1) Microcin J25 was produced by Escherichia coli MC4100 carrying the plasmid PTUC 202 ([Solbiati et al., 1999]). For the antibacterial activity of pure compounds and digestion mixture, Listeria ivanovii HPB28 (Canada Health Protection Branch) was used as indicator strain for nisin and pediocin PA-1, while Staphylococcus aureus ATCC 6538 (ATCC) and Salmonella enterica subsp. enterica serovar Newport ATCC 6962 (later referred to as S. Newport, ATCC) were used as indicator strains for bactofencin A (M14L, M18L) and microcin J25, respectively. L. ivanovii HPB28 and S. aureus were cultured in Tryptic Soy (Difco Laboratories, Spark, MD, United States) supplemented with 0.6% yeast extract (TSBYE), at 30 and 37°C, respectively. S. Newport was cultured at 37°C overnight in Luria-Bertani (LB) (Difco Laboratories, Spark, MD, United States). All strains were maintained at –80°C as stock cultures in their corresponding culture media supplemented with 20% glycerol, and propagated twice at 24 h intervals before use.
(§2) Quantitative determination of inhibitory activity of bacteriocins was carried out using the broth microdilution method as described by [Ben Said et al. (2020)]. Two-fold serial dilutions of bacteriocins (125 μL) were prepared in an appropriate medium in a clear 96-well flat-bottom microtiter plate. Indicator strains were diluted to 10^5 CFU/mL, from which 50 μL were added to each well. The microtiter plates were incubated for 24 h under appropriate conditions, and optical densities were recorded at 595 nm (Infinite M200, Tecan, Switzerland). Control wells contained untreated culture and appropriate medium (blanks). The number of inhibition wells was noted and inhibition activities were calculated in μg/mL.

S. Newport ATCC 6962 = assay type: cell-based, Salmonella enterica subsp. enterica serovar Newport; settings: for Total activity: broth microdilution
From the text: as §1, §2

[1] = cited from earlier work
From the text: There are limited number of studies regarding the stability of bacteriocins in the GI tract. It has been shown that bacteriocins can be degraded by proteolytic enzymes such as pepsin, trypsin and chymotrypsin in the stomach or intestine ([Fernandez et al., 2013]). […] However, in the current study, pediocin PA-1(M31L) and bactof ...

rat erythrocytes = assay: Hemolytic activity; assay type: cell-based; settings: 0.4 to 400 μg/mL, 45 min, 37°C
Description: The experiment was performed after prior approval from the local ethics committee by TransBIOTech laboratory. Hemolytic potential of bacteriocins was evaluated according to [FDA (2005)]. Rat blood was collected into a heparinized tube and added in a 1:1 volume (100 μL) to serially diluted compounds (in 100 μL PBS), in a conical 96-well plate. 10% Triton X-100 and PBS were used as a positive and negative controls, respectively. The plates were sealed and incubated for 45 min at 37°C prior to centrifugation at 2,000 g for 10 min to pellet red blood cells. The supernatant was then transferred into clear 96-well plates and the absorbance was read at 540 nm (hemoglobin). The percentage of hemolysis was calculated as follow, with RBC standing for red blood cells:
%Hemolysis=AbsorbanceofRBCtreatedwithbacteriocins-AbsorbanceofRBCtreatedwithPBS/AbsorbanceofRBCtreatedwithTritonX100-AbsorbanceofRBCtreatedwithPBS

human red blood cells = settings: 750 μM (2.5 mg/mL), ref Begde et al., 2011; cited from earlier work
Description: (§3) Hemolytic activity is used for initial toxicity assessment and estimation of therapeutic index. Nisin remains to be the most studied bacteriocin, while there are very few data available for the other bacteriocins. […] Hemolytic activity of nisin A (Nisaplin®) at 3.35 μg/mL concentration was reported to be 6% in human red blood cells. In another study by [Maher and McClean (2006)], hemolytic activity exerted by 230 μM (771 μg/mL) nisin A (Nutrition 21) was shown ...

Vero cells = settings: cited from earlier work
From the text: (§4) To the best of our knowledge, this is the first study that evaluates the cytotoxicity of several bacteriocins with different structures, mechanisms of actions and spectra of inhibitory activity.

Caco-2 = settings: MTT assay, ref Maher and McClean, 2006; cited from earlier work
From the text: as §4

HT29 (epithelial cells) = settings: MTT assay, ref Maher and McClean, 2006; cited from earlier work
From the text: as §4

sheep erythrocytes = settings: sheep blood cells, 33.75 μM (113 μg/mL); ref Paiva et al., 2012; cited from earlier work
Description: as §3

MCF-7 cells = settings: ref Paiva et al., 2012; cited from earlier work
From the text: as §4

HepG2 cells = settings: ref Paiva et al., 2012; cited from earlier work
From the text: as §4

[2] = test system: human cells relevant to oral cavity; settings: concentration up to 200 μg/mL; ref Shin et al. (2015); cited from earlier work
L. ivanovii HPB 28 = assay type: cell-based, Listeria ivanovii; settings: broth microdilution
From the text: as §1, §2

SV40 cells = settings: 700 AU/mL (approximately 10–20 mg/mL), trypan blue, ref Murinda et al., 2003; cited from earlier work
From the text: as §4

[3] = after oral conditions (SSF, 2 min, 37°C)
[4] = pure compound without GI digestion, 24 h, OD 595 nm
[5] = TIM-1 dynamic model, ref Kheadr et al., 2010

For `CC(C)C[C@@H]1NC(=O)CNC(=O)[C@H]([C@@H](C)O)NC(=O)[C@@H]2CCCN2C(=O)[C@H](CC(C)C)NC(=O)CNC(=O)[C@H](CC(N)=O)NC(=O)[C@H](CC(N)=O)NC(=O)[C@H](Cc2ccc(O)cc2)NC(=O)[C@H](C(C)C)NC(=O)[C@H](CCCNC(=N)N)NC(=O)[C@@H](NC(=O)[C@H](CCCNC(=N)N)NC(=O)[C@H](Cc2c[nH]cn2)NC(=O)[C@H](CCCCN)NC(=O)[C@H](CCCCN)NC(=O)[C@H](CCCNC(=N)N)NC(=O)[C@@H](N)CCCCN)CSSC[C@@H](C(N)=O)NC(=O)[C@H](Cc2c[nH]c3ccccc23)NC(=O)[C@H](CCCNC(=N)N)NC(=O)[C@H](Cc2ccc(O)cc2)NC1=O` [bactofencin A(M14L, M18L)] (H-KRKKHRCRVYNNGLPTGLYRWC-NH2; disulfide 7-22 (inferred); N-terminus and C-terminus assumed), which MIC (S. aureus ATCC 6538; ATCC 6538, 24 h) is on record?
Its MIC is 5 µg/mL (≈ 1.82 µM).

And the Total activity (S. aureus ATCC 6538; [3])?
The Total activity was 10.4 AU/mL.

And the Total activity (S. aureus ATCC 6538; [4])?
The Total activity was 10.4 AU/mL.

With `CC[C@H](C)[C@H](NC(=O)CNC(=O)[C@@H](NC(=O)[C@H](Cc1ccccc1)NC(=O)[C@H](Cc1ccc(O)cc1)NC(=O)[C@@H]1CCC(=O)NCC(=O)NCC(=O)N[C@@H](C)C(=O)NCC(=O)N[C@@H](Cc2c[nH]cn2)C(=O)N[C@@H](C(C)C)C(=O)N2CCC[C@H]2C(=O)N1)C(C)C)C(=O)NCC(=O)N[C@H](C(=O)N1CCC[C@H]1C(=O)N[C@H](C(=O)N[C@@H](CO)C(=O)N[C@@H](Cc1ccccc1)C(=O)N[C@@H](Cc1ccc(O)cc1)C(=O)NCC(=O)O)[C@@H](C)CC)[C@@H](C)O` [microcin J25] (GGAGHVPEYFVGIGTPISFYG-OH; lactam N-8 (inferred); C-terminus assumed) as the compound, how does the MIC (S. Newport ATCC 6962; ATCC 6962, 24 h) read?
Its MIC is 0.0356 µg/mL (≈ 0.0169 µM).

And the Total activity (S. Newport ATCC 6962; after gastric conditions (SGF, pepsin 2000 U/mL, lipase 60 U/mL, pH 3, 90 min, 37°C))?
Its Total activity is 0.0712 AU/mL.

What about the Total activity (S. Newport ATCC 6962; [3]) of the same compound?
Its Total activity is 0.0712 AU/mL.

What about the Total activity (S. Newport ATCC 6962; after small intestinal conditions (SIF, bile salt 10 mmol/L, pancreatin 100 U/mL, pH 7, 2 h, 37°C)) of the same compound?
The Total activity was 0.356 AU/mL.

And the Total activity (S. Newport ATCC 6962; [4])?
Its Total activity is 0.0712 AU/mL.

With `CC[C@H](C)[C@H](NC(=O)CNC(=O)[C@@H](NC(=O)[C@H](Cc1ccccc1)NC(=O)[C@H](Cc1ccc(O)cc1)NC(=O)[C@@H]1CCC(=O)NCC(=O)NCC(=O)N[C@@H](C)C(=O)NCC(=O)N[C@@H](Cc2cnc[nH]2)C(=O)N[C@@H](C(C)C)C(=O)N2CCC[C@H]2C(=O)N1)C(C)C)C(=O)NCC(=O)N[C@H](C(=O)N1CCC[C@H]1C(=O)N[C@H](C(=O)N[C@@H](CO)C(=O)N[C@@H](Cc1ccccc1)C(=O)N[C@@H](Cc1ccc(O)cc1)C(=O)NCC(=O)O)[C@@H](C)CC)[C@@H](C)O` [microcin J25] (GGAGHVPEYFVGIGTPISFYG-OH; lactam N-8) as the compound, how does the “Degradation upon exposure to pancreatin (small intestine)” value [1] read?
The value was “only partially degraded”.

And the “Resistance to the proteolytic enzymes in the stomach” value [1]?
The value was “highly resistant”.

Which “Concentration above which dose-dependent increase in percentage of hemolysis was shown” value (rat erythrocytes) does the source give for “KYYGNGVTCGKHSCSVDWGKATTCIINNGALAWATGGHQGNHKC-OH (disulfide 9-14, 24-44) [pediocin PA-1(M31L)]” here?
The value was “higher than 50 μg/mL”.

Which Relative hemolysis (human red blood cells) does the source give for nisin here?
The Relative hemolysis was 10%.

With “nisin A (I[Dhb]AI[Dha]LC[Abu]PGCK[Abu]GALMGCNMK[Abu]A[Abu]CHCSIHV[Dha]K; thioether (positions not given here); not fully specified (residues 7, 11, 19, 26, 28, bridges); UniProt P13068 24-57, looked up) [nisin A (Nisaplin®), commercial nisin A product Nisaplin (Danisco)]” as the compound, how does the EC50 (Vero cells; LDH cytotoxicity assay, ref Vaucher et al. (2010)) read?
The EC50 was 0.62 µg/mL.

With “nisin A (I[Dhb]AI[Dha]LC[Abu]PGCK[Abu]GALMGCNMK[Abu]A[Abu]CHCSIHV[Dha]K; thioether (positions not given here); not fully specified (residues 7, 11, 19, 26, 28, bridges); UniProt P13068 24-57, looked up) [nisin A (Nutrition 21), commercial nisin A (Nutrition 21)]” as the compound, how does the IC50 (Caco-2) read?
Its IC50 is 385.7 µg/mL.

What about the IC50 (HT29 (epithelial cells)) of the same compound?
The IC50 was 301.5 µg/mL.

With nisin C [nisin C (Chrisin®)] as the compound, how does the Hemolysis (sheep erythrocytes) read?
The Hemolysis was 6.6%.

What about the “Concentration reducing viability to 50%” value (Vero cells; ref Paiva et al., 2012) of the same compound?
Its value is 45.21 µg/mL.

What about the “Concentration reducing viability to 50%” value (MCF-7 cells) of the same compound?
The value was 352 µg/mL.

What about the “Concentration reducing viability to 50%” value (HepG2 cells) of the same compound?
The value was 352 µg/mL.

With “nisin Z (I[Dhb]AI[Dha]LC[Abu]PGCK[Abu]GALMGCNMK[Abu]A[Abu]CNCSIHV[Dha]K; thioether (positions not given here); not fully specified (residues 7, 11, 19, 26, 28, bridges); UniProt P29559 24-57, looked up) [nisin Z (Handary, Brussels, Belgium), commercial nisin Z from Handary]” as the compound, how does the Toxic effect [2] read?
The Toxic effect was “did not exert any toxic effect”.

For “pediocin PA-1 (KYYGNGVTCGKHSCSVDWGKATTCIINNGAMAWATGGHQGNHKC; disulfide 9-14, 24-44; UniProt P29430 19-62, looked up) [wild-type bacteriocin naturally produced by Pediococcus acidilactici, literature data]”, which “Stability in the small intestine” value [1, 5] is on record?
Its value is “completely degraded”.

What about the “Stability in the stomach” value [1, 5] of the same compound?
The value was “stable”.

And the Total activity (L. ivanovii HPB 28; [3])?
Its Total activity is 0.18 AU/mL.

What about the Total activity (L. ivanovii HPB 28; [4]) of the same compound?
Its Total activity is 0.18 AU/mL.

And the “Cell viability reduced to” value (SV40 cells)?
Its value is 36%.
